Where two headings read alike, the source gives them in different places.

For orientation: IC50 means the concentration that inhibits the measured activity by half.

One test concerns K562 cells. Description: K562 cell culture and growth assay, 6 day MTT. It is filed as cell-based, human. Particulars: K562, 6 days, 4 or more experiments. In short, it runs like this: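 Cells (2×10^3/well) in RPMI with 10% fetal calf serum incubated with increasing compound concentrations in DMSO, with DMSO-matched controls. Growth quantitated after 6 days by MTT reduction to formazan.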

A further test addresses T1, p210^bcr-abl (Homo sapiens, UniProt P00519).
T1 construct: immune complexes containing ^32P-labeled p210^bcr-abl were collected on protein Sepharose beads; BCR (N-terminal part of the breakpoint cluster region protein, natural fusion partner); endogenous in cells; host or cells: K562 cells (lysate, immunoprecipitated on Protein A-Sepharose); the other entry of the earlier key: BCR (P11274, Breakpoint cluster region protein)
Description: Inhibition of in vitro auto-phosphorylation of p210^bcr-abl, immune-complex kinase assay. It is filed as biochemical. The note with it: immune complex kinase assay, 3 experiments, read-out: Enzyme Assays IC50 (μM) p210bcl-abl in vitro phosphorylation. In short, it runs like this: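 p210^bcr-abl immunoprecipitated from K562 cell lysates, then incubated with compounds in 20 mM PIPES (pH 7.0)–20 mM MnCl2. Autophosphorylation started with […], 20 min at 30 °C, read by 4-20% SDS-PAGE and autoradiography.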

Where [1] appears, read: Homo sapiens, 144 h, Table 10, mean ± S.E., read-out: IC50 (μM) 6dMTT.
Setting [2] is: Homo sapiens, 144 h, Table 8, mean+S.E., read-out: IC50 (μM) 6 dMTT.
[3] abbreviates: Table 10, mean ± S.E., read-out: IC50 (μM) 6dMTT.

T1 sequence (P00519 with tags, fused parts or gaps): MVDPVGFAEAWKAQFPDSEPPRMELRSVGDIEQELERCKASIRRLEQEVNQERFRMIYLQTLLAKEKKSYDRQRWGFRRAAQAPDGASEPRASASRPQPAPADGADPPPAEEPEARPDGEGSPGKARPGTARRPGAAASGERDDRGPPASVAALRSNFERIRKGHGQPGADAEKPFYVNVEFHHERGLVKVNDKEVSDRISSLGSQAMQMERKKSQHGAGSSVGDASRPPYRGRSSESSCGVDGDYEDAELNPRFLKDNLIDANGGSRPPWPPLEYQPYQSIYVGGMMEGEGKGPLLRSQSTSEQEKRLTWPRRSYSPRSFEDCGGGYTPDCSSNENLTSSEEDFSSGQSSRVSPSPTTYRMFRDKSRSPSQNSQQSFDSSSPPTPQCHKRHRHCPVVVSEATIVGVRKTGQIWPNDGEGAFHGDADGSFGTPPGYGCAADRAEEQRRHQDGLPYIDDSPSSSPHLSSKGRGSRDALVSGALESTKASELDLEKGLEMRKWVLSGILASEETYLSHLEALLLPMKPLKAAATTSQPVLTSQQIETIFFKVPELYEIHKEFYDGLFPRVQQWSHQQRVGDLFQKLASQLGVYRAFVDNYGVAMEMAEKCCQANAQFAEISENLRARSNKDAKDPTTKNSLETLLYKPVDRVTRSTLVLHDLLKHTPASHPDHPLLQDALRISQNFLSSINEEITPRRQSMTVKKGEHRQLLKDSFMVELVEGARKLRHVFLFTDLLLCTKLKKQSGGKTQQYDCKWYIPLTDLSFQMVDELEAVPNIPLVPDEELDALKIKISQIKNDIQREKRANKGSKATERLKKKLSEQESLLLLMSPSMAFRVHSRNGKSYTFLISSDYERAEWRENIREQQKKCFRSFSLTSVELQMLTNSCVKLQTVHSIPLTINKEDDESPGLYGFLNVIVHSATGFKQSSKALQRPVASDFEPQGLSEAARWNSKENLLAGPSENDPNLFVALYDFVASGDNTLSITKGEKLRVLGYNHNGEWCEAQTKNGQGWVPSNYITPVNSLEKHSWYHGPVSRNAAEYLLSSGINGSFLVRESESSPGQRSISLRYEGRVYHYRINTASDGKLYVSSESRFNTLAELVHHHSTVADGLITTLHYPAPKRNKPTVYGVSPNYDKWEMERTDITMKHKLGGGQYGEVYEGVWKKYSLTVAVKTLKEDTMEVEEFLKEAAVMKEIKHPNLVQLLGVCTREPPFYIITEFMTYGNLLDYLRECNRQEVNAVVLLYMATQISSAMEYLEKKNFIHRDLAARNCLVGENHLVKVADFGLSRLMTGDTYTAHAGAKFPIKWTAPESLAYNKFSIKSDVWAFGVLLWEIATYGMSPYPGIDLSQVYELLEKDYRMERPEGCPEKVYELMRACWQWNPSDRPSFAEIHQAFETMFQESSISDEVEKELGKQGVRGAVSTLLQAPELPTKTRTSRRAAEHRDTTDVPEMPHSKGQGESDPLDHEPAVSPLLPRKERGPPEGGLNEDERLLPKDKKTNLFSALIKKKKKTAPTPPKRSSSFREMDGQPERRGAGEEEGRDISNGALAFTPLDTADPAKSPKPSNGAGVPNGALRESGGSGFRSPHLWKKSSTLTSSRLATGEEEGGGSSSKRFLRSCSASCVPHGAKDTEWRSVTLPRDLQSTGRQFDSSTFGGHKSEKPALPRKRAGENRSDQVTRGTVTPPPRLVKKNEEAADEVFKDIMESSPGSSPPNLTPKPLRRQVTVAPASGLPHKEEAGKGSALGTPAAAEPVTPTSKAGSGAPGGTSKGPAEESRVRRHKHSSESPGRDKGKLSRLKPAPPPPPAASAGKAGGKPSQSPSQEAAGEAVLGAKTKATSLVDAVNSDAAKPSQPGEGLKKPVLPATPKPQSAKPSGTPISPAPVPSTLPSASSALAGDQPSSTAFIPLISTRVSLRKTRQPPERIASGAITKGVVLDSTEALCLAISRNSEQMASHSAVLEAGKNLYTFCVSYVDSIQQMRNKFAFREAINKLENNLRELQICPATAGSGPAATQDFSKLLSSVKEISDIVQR

As for `COC(=O)c1ccc(C=Cc2cc(O)ccc2O)cc1` [COOCH3 / 2,5-dihydoxyphenyl / CH═CH / H], the half-maximal inhibitory concentration (IC50) was found to be 9.72 ± 0.49 µM with K562 cells (setting [1]) and 19.9 ± 9.94 µM at p210^bcr-abl (Table 10, mean ± S.E.).

`COC(=O)c1ccc(CCC2=CC(=O)C(Br)=CC2=O)cc1`: the IC50 was 36.5 ± 1 µM with K562 cells (setting [1]) and 3.52 ± 0.16 µM at p210^bcr-abl (Table 10, mean ± S.E.).

`CC(C)OC(=O)c1ccc(NCc2cc(O)ccc2O)cc1` [COOCH(CH3)2 / H / H]: the IC50 in the test on K562 cells (setting [2]) is 15.1 µM; at p210^bcr-abl (Table 8, mean+S.E.), 4.45 µM.

As to `O=C(OCC12CC3CC(CC(C3)C1)C2)c1ccc(NCc2cc(O)ccc2O)cc1` [Compound 7, 4′-4′-adamantylmethylbenzoate-1′-N-2,5-dihydroxybenzylamine], the IC50 in the test on K562 cells (setting [2]) was 12.8 µM; on p210^bcr-abl (Table 8, mean+S.E.), 12.6 µM.

Take `O=C(OCc1ccccc1)c1ccc(NCc2cc(O)ccc2O)cc1` [COOCH2Ph / H / H]: the half-maximal inhibitory concentration (IC50) in the test on K562 cells (setting [2]) stood at 12 µM; at p210^bcr-abl (Table 8, mean+S.E.), 36.6 µM.

As to `CC(C)OC(=O)c1ccc(CCC2=CC(=O)C=CC2=O)cc1` [COOCH(CH3)2 / 2,5-quinoyl / CH2—CH2 / H], the concentration for half-maximal inhibition (IC50) in the test on K562 cells (setting [3]) was 19.9 ± 0.5 µM; on p210^bcr-abl (Table 10, mean ± S.E.), 5.26 ± 2.09 µM.

Regarding `COC(=O)c1ccc(/C=C/C2=CC(=O)C=CC2=O)cc1` [COOCH3 / 2,5-quinoyl / CH═CH / H], the half-maximal inhibitory concentration (IC50) was found to be 17.8 ± 0.22 µM in the test on K562 cells (setting [3]) and 5.47 ± 0.22 µM at p210^bcr-abl (Table 10, mean ± S.E.).

With `COC(=O)c1ccc(CCc2cc(O)c(Br)cc2O)cc1`, the concentration for half-maximal inhibition (IC50) stood at 7 ± 0.5 µM in the test on K562 cells (setting [1]) and 4.42 ± 0.24 µM on p210^bcr-abl (Table 10, mean ± S.E.).

As for `CC(C)OC(=O)c1ccc(CCC2=CC(=O)C(Br)=CC2=O)cc1`, the IC50 with K562 cells (setting [3]) was determined as 59.8 ± 0.44 µM; at p210^bcr-abl (Table 10, mean ± S.E.), 4.19 ± 0.07 µM.

With `CC(C)(C)OC(=O)c1ccc(NCc2cc(O)ccc2O)cc1` [COOC(CH3)3 / H / H, 4′-t-butylbenzoate-1′-N-2,5-dihydroxybenzylamine], the IC50 in the test on K562 cells (setting [2]) was determined as 16.4 µM; on p210^bcr-abl (Table 8, mean+S.E.), 7.72 µM.

Turning to `CC(C)C(OC(=O)c1ccc(NCC2=CC(=O)C=CC2=O)cc1)C(C)C` [COOCH[CH(CH3)2]2 / H / 2,5-quinoyl], the half-maximal inhibitory concentration (IC50) in the test on K562 cells (Table 9, mean ± S.E., read-out: IC50 (μM) 6dMTT) stood at 38.8 ± 12.8 µM; at p210^bcr-abl (Table 9, mean ± S.E.), 34 ± 9.02 µM.

In the case of `CC(C)C(OC(=O)c1ccc(NCc2cc(O)ccc2O)cc1)C(C)C` [COOCH[CH(CH3)2]2 / H / H], the IC50 in the test with K562 cells (setting [2]) was 9.98 µM; at p210^bcr-abl (Table 8, mean+S.E.) it was 11.1 µM.

Take `CC(C)OC(=O)c1ccc(NCc2cc(O)ccc2O)cc1Cl` [COOCH(CH3)2 / Cl / H, 5′-chloro-4′-isopropylbenzoate-1′-N-2,5-dihydroxybenzylamine]: the IC50 in the test on K562 cells (Table 8, mean+S.E., read-out: IC50 (μM) 6 dMTT) is 21.6 µM; at p210^bcr-abl (Table 8, mean+S.E.), 1.22 µM.

As to `O=C(OC12CC3CC(CC(C3)C1)C2)c1ccc(NCc2cc(O)ccc2O)cc1` [Compound 6, 4′-adamantylbenzoate-1′-N-2,5-dihydroxybenzylamine], the IC50 was determined as 9.75 µM in the test on K562 cells (setting [2]) and 13.6 µM at p210^bcr-abl (Table 8, mean+S.E.).
